The values below are quoted from earlier work in patent publication US11168091B2, “Quantification and preparation of pharmaceutical grade cantharidin” (priority 2015, dated 2021).

For this series the following is noted: properly stored in a cool and dry place away from strong light and heat; crude preparation of Table 6.

For the molecule `CC12C(=O)OC(=O)C1(C)C1CCC2O1` (stereo not shown) [crude cantharidin, 1,2-Dimethyl-3,6-epoxyperhydrophthalic anhydride], the shelf life is given as 3 years.
